The values below come from patent US20120309677A1, “METHODS FOR REGULATING BLOOD GLUCOSE LEVELS” (Monash University, priority 2010, published 2012).

The target of experiment [1] is hMC5R (Homo sapiens, UniProt P33032). The conditions noted are these: cited from earlier work.
The test system of experiment [2] is skeletal muscle cells. Kind of experiment: Glucose uptake in skeletal muscle cells with MC5R agonist. Format: cell-based.
A short description of experiment [3]: Glucose disposal during ipGTT with systemic α-MSH infusion. Format: in vivo, mice. The conditions noted are these: for glucose disposal during ipGTT: systemic infusion (external jugular vein) 1 μg/h. As for the experimental part: Mice were instrumented with an arterial catheter (carotid artery) to monitor blood pressure (BP), heart rate (HR) and for sampling. At the same time, a venous catheter (jugular vein) was placed to infuse α-MSH (1 μg/h) for 3 h. Blood glucose was measured before and at 10 and 20 mins of α-MSH infusion. After that, mice received an ip glucose injection (GTT, 1 mg/g). Blood glucose levels were measured at 15, 30, 60 and 120 mins after glucose challenge. BP and […] were recorded during whole procedure. The results are shown in FIGS. 5A and 5B. **[…] vs saline infusion. In a further experiment, MC4R activity was blocked using agouti-related peptide (AgRP; 1.0 nmol, 1 μl) administered (by injection to the lateral ventricle) 1 hr before commencement of the α-MSH infusion.

The subject of experiment [4] is Rat L6 skeletal muscle cells. The experiment is described as follows: Glucose uptake in differentiated L6 cells. The format is cell-based. The conditions noted are these: 100 nM α-MSH and/or 10 nM insulin; FIG. 10. As for the experimental part: Rat L6 skeletal muscle cells were seeded in 12-well plates and differentiated in myotubes by replacing growth medium (DMEM+10% FBS) with DMEM+2% horse serum. Medium was changed every day for 1 week. Cells were preincubated for 20 min with no glucose medium+0.1% fatty acid-free BSA. 10 nM of insulin and/or 100 nM α-MSH was added to the corresponding wells. Glucose uptake was assessed for 15 min using 2-deoxy-D-[2,6-^3H]glucose (1 mmol/1, 0.5 μCi/ml) in the presence or absence of 10 nM insulin and 100 nM of α-MSH. Radioactivity was measured in cell lysates by liquid scintillation counting.

Experiment [5] has as its system adult monkey pituitaries. The experiment is described as follows: α-MSH release from halved pituitaries. The format is cell-based. The following applies: glucose 15 mM, insulin 200 nM, 45 min; FIG. 1A. The method, then:
Adult monkey pituitaries (n=22) were halved and then treated separately with artificial cerebrospinal fluid (aCSF) equilibrated with 95% O2 and 5% CO2 and incubated at 37° C. After 1 hr equilibration period, halves were incubated for 45 min in aCSF (basal period) before being challenged with glucose (Glu): 15 mM, insulin (Ins): 200 nM or Glu+Ins (15 mM+200 nM) treatments for 45 min. […] This was confirmed by measurement of α-MSH in monkey pituitaries by radioimmunoassay after acidic extraction (FIG. 1B).

Experiment [6] can be described thus: α-MSH levels after ip insulin injection. The conditions noted are these: POMC-Kir6.2 mutant mice and control littermates; human insulin 1.0 U/kg ip; FIG. 3B. Format: in vivo. From the text:
POMC-mutKIR6.2 mice is a mutant in which all POMC cells lack the capacity to sense glucose due to dysfunctional ATP/K+ channels. Mutants and wild-type littermates were fed a regular diet. Blood glucose and α-MSH samples were taken after ip injection of human insulin (1.0 U/kg). The results are shown in FIG. 3A. **P<0.01 vs baseline value in the respective group by repeated-measures ANOVA. # P<0.01 vs control littermate at the respective point by single measured.

The nature of experiment [7]: Muscle temperature in sheep during α-MSH infusion. Format: in vivo. The method, then: Four ovariectomised ewes were placed on a diet of temporal food restriction where food was made available between 11:00-16:00 h (as depicted by the grey box in FIGS. 4A and 4B). Animals were exposed to this feeding window for at least 2 weeks prior to experimentation. Then, one week before the onset of experiments, an indwelling cannulae was surgically inserted into the external jugular vein (experiment a) or femoral artery (experiment b). At the same time, a datalogger was implanted into the vastus lateralis muscle of the hindlimb and programmed to read temperature at 15 min intervals. Animals were treated with either α-MSH 100 μg/h (▾ triangles) for experiment a or 1 μg/h for experiment b or saline (800 μl/h, […]). Infusions were carried out between 10:00-19:00 h.

The subject of experiment [8] is soleus muscles. The experiment is described as follows: Glucose uptake in isolated soleus muscles (2-deoxy-D-[3H]glucose). Format: cell-based, mice. The following applies: 100 nM, presence and absence of 10 nM insulin. As for the experimental part: Mice were fasted overnight and soleus muscles were dissected from anaesthetised mice. Muscles were preincubated for 30 min with 1 ml of warmed (30° C.), pregassed (95% O2-5% CO2, pH 7.4), modified Krebs-Henseleit buffer supplemented with 2 mmol/l sodium pyruvate, 8 mmol/l mannitol, and 0.1% wt/vol BSA and were then incubated with or without 10 nM insulin, α-MSH (100 nM) or α-MSH plus insulin (100 nM+10 nM) for 20 min. Glucose uptake was assessed for 10 min using 2-deoxy-D-[2,6-^3H]glucose (1 mmol/1, 0.5 μCi/ml) in the presence or absence of 10 nM insulin. Radioactivity was measured in muscle lysates by liquid scintillation counting.

For experiment [9], the system named is p-AMPK. The experiment is described as follows: p-AMPK levels in soleus muscles treated in vitro (Western blot). The format is cell-based. The conditions noted are these: lean mice; 1, 10 and 100 nM for 45 min in vitro; FIG. 8. The method, then:
Soleus muscles were dissected from anaesthetised mice. Muscles were incubated with α-MSH (at 1, 10, and 100 nM) for 45 min. After that, muscles were immediately homogenised in cold RIPA lysis buffer. Homogenates were centrifugated and supernatant were collected to measure protein contents ([…]). 50 μg of each sample was loaded on a 10% Tris-Glycine pre-cast gel. A liver protein sample was run as a positive control. The gel was then transferred onto an Immobilon PVDF membrane for 2 h and after blocking for 1 h with 5% milk in TBST, was incubated o/n with anti-p-AMPK antibody (1:1000; Cell Signaling Technology, Inc, Danvers, Mass., United States of America), anti-total AMPK (1:1000, Cell Signaling Technology, Inc), or anti-GAPDH antibody (1:20000). To avoid interferences with total AMPK antibody, membranes were stripped before incubating with this antibody. Goat anti-mouse IgG horseradish peroxidase (1:50000, Santa Cruz Biotechnology, Inc, Santa Cruz, Calif., United States of America) was used as secondary antibody.
For orientation: A western blot detects proteins with antibodies after separation by electrophoresis.

Experiment [10] relates to cAMP. The experiment is described as follows: cAMP levels in muscles after α-MSH infusion (immunoassay). Format: in vivo. The following applies: control mice; 45 minutes of α-MSH infusion; FIG. 9A. The method, then: To measure cAMP concentrations and to determine p-AMPK protein expression in muscles, an experiment was conducted according to a similar design to that described in FIG. 5. Muscle tissues were obtained after 45 minutes of initiating α-MSH infusion and 25 minutes of administering glucose injection. cAMP concentration was determined with a direct immunoassay kit (BioVision Research Products, Mountain View, Calif., United States of America). The kit has a cAMP polyclonal antibody onto the plate. cAMP-HRP conjugates directly compete with cAMP from sample binding to the cAMP antibody on the plate. The HRP activity at 450 nm is inversely proportional to the cAMP concentration in samples. White bars: saline infusion, dark bars: α-MSH infusion
A general note: Changes in cAMP serve as a functional read-out for many G protein-coupled receptors.

For experiment [11], the system named is p-AMPK. Kind of experiment: p-AMPK protein expression in muscles after α-MSH infusion (Western blot). Format: in vivo. The following applies: control mice, FIG. 9B. The method, then: To measure cAMP concentrations and to determine p-AMPK protein expression in muscles, an experiment was conducted according to a similar design to that described in FIG. 5. Muscle tissues were obtained after 45 minutes of initiating α-MSH infusion and 25 minutes of administering glucose injection. cAMP concentration was determined with a direct immunoassay kit (BioVision Research Products, Mountain View, Calif., United States of America). The kit has a cAMP polyclonal antibody onto the plate. cAMP-HRP conjugates directly compete with cAMP from sample binding to the cAMP antibody on the plate. The HRP activity at 450 nm is inversely proportional to the cAMP concentration in samples. White bars: saline infusion, dark bars: α-MSH infusion p-AMPK and total AMPK were determined by Western blot. Results shown in FIG. 9B are expressed as a ratio P/Total AMPK. *P<0.05

Chain of hMC5R (P33032 whole entry): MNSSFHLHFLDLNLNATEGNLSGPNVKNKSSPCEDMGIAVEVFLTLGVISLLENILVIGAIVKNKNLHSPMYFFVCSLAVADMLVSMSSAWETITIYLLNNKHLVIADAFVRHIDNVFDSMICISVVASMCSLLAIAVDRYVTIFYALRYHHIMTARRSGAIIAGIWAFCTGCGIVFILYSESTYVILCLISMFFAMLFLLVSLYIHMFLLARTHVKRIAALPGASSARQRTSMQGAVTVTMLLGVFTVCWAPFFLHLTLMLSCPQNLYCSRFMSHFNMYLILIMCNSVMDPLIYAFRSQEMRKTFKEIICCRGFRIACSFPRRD

Usually EC50 stands for the concentration needed to bring the measured effect to its halfway point. With “Ac-Nle-c[Asp-Hyp-D-Nal(2′)-Arg-Trp-Lys]-NH2 [PG-911]”, in experiment [1], the EC50 was 0.031 nM.
For “Ac-Nle-c[Asp-Pro-D-Nal(2′)-Arg-Trp-Lys]-NH2 (XDPXRWK; Ac, amide, cyclic lactam, Nle, D-Nal(2'); PG-901)”, the “increases of glucose uptake in skeletal muscle cells” value in experiment [2] (1 nM and 5 nM amounts, FIG. 5D) was 30-40%. Further, the “effect of an MC3R and MC4R antagonist on the increase of glucose uptake” value in experiment [2] (1 nM and 5 nM amounts, data not shown) is “unaffected by the presence of an MC3R and MC4R antagonist”. Also, the “glucose uptake in muscle cells” value in experiment [2] (FIG. 5D) was “increases glucose uptake in muscle cells”.
For the substance “agouti-related peptide (SSRRCVRLHESCLGQQVPCCDPCATCYCRFFNAFCYCRKLGTAMNPCSRT; UniProt O00253 83-132, looked up) [AgRP, reference compound]”, the “effect on the response (increased glucose disposal) to α-MSH infusion” value in [3] (AgRP 1.0 nmol to lateral ventricle 1 hr before α-MSH infusion, to block MC4R, FIG. 5C) was “does not prevent the response”.
In the case of insulin, in experiment [4], the “glucose uptake by rat L6 cells” value is on record as “increases in glucose uptake”. In addition, the “α-MSH release from pituitaries” value in experiment [5] was “stimulate α-MSH release”. Further, the “α-MSH levels in response to insulin” value in [6] is “do not change”.
With “α-melanocyte stimulating hormone (SYSMEHFRWGKPV) [α-MSH, native peptide; native agonist for the type 1, 3, 4 and 5 melanocortin receptors]”, the muscle temperature entry in experiment [7] (direct infusion into femoral artery, 1 μg/h, FIG. 4B) was “causes an increase in muscle temperature”. The post-prandial muscle temperature result in [7] (systemic infusion (external jugular vein), 100 μg/h, FIG. 4A) is “increases post-prandial muscle temperature”. In addition, the “response to α-MSH infusion” value in experiment [3] (MC4R KO mice, data not shown) is recorded as “intact response”. Moreover, the “glucose disposal during ipGTT” value in [3] (control mice, FIG. 5A) is “increases glucose disposal”; in [3] (obese (DIO) mice, FIG. 5B), “does not increase glucose disposal”. The “glucose uptake in soleus muscles” value is “increases glucose uptake” in experiment [8] (control mice, FIG. 6A) and “does not increase glucose uptake” in experiment [8] (obese mice, FIG. 6B). Further, the p-AMPK muscle levels entry in [9] is on record as “dose-dependent increase of p-AMPK muscle levels”. In [10], the “cAMP levels in muscles” value was “increase of cAMP levels”. For the same substance, the “p-AMPK protein expression in muscles (ratio P/Total AMPK)” value in experiment [11] is “increased”. Further, the “glucose uptake by rat L6 cells” value in experiment [4] was “increases in glucose uptake”.
